Measurements from ChEMBL document CHEMBL1909046, “DrugMatrix in vitro pharmacology data”.

Assays:
[1] = molecular target: T1, Alpha-2C adrenergic receptor (Homo sapiens, UniProt P18825); experiment: DRUGMATRIX: Adrenergic Alpha-2C radioligand binding (ligand: [3H] MK-912); format: cell membranes, Sf9, Membrane; settings: sf9
T1 sequence (P18825 whole entry): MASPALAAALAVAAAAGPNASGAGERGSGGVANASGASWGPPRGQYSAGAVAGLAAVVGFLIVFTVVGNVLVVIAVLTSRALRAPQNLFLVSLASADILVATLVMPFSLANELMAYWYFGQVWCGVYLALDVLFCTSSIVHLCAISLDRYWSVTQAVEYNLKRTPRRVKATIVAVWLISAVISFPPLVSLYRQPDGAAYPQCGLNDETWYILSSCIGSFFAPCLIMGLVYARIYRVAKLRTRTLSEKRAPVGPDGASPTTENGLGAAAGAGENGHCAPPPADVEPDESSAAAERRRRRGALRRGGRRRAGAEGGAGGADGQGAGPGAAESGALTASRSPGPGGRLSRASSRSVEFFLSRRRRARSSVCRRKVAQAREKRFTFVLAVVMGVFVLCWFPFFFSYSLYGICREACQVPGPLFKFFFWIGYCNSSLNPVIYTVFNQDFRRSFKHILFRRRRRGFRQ

[2] = molecular target: Mitogen-activated protein kinase 3 (Homo sapiens, UniProt P27361); experiment: DRUGMATRIX: Protein Serine/Threonine Kinase, ERK1 enzyme inhibition (substrate: Myelin Basic Protein); set-up: species or system Escherichia coli; settings: Not Active = under 50% inhibition at 10 µM
Chain of Mitogen-activated protein kinase 3 (P27361 whole entry): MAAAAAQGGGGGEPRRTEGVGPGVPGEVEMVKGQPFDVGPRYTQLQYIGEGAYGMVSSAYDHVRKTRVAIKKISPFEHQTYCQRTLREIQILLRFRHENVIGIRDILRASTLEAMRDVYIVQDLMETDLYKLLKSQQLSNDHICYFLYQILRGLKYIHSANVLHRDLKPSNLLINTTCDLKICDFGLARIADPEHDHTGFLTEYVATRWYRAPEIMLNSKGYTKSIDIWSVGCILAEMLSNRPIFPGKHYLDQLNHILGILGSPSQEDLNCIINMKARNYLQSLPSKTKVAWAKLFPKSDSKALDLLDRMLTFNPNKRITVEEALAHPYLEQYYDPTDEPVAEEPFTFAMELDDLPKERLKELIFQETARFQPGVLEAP

[3] = molecular target: T2, Alpha-1B adrenergic receptor (Rattus norvegicus, UniProt P15823); experiment: DRUGMATRIX: Alpha-1B adrenergic receptor radioligand binding (ligand: prazosin); format: cell membranes, Wistar, Liver, Membrane; settings: Not Active = under 50% inhibition at 10 µM
T2 sequence (P15823 whole entry): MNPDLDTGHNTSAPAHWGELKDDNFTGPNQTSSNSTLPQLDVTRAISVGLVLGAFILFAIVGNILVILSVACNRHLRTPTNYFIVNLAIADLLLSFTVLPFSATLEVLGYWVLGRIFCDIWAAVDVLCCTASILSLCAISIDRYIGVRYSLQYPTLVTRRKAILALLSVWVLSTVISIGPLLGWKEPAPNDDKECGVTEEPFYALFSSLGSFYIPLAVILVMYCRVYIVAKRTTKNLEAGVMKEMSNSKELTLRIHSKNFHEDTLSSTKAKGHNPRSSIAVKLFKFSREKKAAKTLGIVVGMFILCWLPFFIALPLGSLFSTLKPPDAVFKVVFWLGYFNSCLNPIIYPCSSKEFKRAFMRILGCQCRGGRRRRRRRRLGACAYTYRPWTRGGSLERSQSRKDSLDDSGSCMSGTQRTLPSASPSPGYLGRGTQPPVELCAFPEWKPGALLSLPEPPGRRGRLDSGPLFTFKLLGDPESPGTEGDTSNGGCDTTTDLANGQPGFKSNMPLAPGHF

[4] = molecular target: Beta-2 adrenergic receptor (Homo sapiens, UniProt P07550); experiment: DRUGMATRIX: Adrenergic beta2 radioligand binding (ligand: [3H] CGP-12177); format: cell membranes, Membrane; settings: cho; Not Active = under 50% inhibition at 10 µM
Chain of Beta-2 adrenergic receptor (P07550 whole entry): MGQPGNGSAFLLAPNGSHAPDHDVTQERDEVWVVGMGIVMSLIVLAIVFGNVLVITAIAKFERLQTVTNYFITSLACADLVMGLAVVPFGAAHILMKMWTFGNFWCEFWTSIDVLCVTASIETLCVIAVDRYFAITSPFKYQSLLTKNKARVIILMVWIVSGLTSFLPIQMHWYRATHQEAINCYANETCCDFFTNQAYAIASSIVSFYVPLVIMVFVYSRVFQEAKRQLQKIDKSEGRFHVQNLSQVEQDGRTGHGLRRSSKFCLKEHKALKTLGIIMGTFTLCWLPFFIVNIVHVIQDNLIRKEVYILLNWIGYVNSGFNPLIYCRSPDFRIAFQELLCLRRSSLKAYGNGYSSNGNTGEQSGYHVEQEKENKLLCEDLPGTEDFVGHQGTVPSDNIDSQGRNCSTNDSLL

Cytochrome P450 2A6 = molecular target: T3, Cytochrome P450 2A6 (Homo sapiens, UniProt P11509); settings: bti-tn-5b1-4; also: in other assays of this panel Not Active means under 50% inhibition at 10 µM
T3 sequence (P11509 whole entry): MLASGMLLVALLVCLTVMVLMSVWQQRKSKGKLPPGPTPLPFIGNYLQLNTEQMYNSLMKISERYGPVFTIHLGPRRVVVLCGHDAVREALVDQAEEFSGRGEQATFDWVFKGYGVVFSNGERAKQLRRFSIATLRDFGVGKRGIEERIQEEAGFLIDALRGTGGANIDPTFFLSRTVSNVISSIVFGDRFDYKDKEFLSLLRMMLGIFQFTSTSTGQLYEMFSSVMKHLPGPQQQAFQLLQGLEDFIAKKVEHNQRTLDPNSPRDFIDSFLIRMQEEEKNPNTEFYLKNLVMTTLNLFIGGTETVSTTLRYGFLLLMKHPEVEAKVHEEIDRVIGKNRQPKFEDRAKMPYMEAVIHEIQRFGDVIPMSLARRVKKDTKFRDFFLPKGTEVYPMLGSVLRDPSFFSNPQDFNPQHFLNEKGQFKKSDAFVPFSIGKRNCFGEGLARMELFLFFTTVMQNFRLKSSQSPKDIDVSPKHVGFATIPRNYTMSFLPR

Cytochrome P450 2E1 = Cytochrome P450 2E1 (Homo sapiens, UniProt P05181); settings: bti-tn-5b1-4; also: in other assays of this panel Not Active means under 50% inhibition at 10 µM
Chain of Cytochrome P450 2E1 (P05181 whole entry): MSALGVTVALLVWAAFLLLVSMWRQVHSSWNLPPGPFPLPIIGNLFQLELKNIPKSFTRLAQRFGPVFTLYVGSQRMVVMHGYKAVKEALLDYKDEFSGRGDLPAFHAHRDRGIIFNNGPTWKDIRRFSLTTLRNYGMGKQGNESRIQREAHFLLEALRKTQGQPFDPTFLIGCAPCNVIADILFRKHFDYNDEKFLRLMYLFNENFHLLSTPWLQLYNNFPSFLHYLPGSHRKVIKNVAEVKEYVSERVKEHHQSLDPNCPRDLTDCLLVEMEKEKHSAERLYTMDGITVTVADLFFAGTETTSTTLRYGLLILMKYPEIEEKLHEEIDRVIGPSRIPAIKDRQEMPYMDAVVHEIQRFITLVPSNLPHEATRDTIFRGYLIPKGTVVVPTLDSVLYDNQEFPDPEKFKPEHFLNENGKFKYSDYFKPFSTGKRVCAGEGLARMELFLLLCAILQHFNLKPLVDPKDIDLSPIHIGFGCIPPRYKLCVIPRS

[5] = molecular target: T4, C-C chemokine receptor type 4 (Homo sapiens, UniProt P51679); format: cell membranes, Membrane; settings: chem-1; also: in other assays of this panel Not Active means under 50% inhibition at 10 µM
T4 sequence (P51679 whole entry): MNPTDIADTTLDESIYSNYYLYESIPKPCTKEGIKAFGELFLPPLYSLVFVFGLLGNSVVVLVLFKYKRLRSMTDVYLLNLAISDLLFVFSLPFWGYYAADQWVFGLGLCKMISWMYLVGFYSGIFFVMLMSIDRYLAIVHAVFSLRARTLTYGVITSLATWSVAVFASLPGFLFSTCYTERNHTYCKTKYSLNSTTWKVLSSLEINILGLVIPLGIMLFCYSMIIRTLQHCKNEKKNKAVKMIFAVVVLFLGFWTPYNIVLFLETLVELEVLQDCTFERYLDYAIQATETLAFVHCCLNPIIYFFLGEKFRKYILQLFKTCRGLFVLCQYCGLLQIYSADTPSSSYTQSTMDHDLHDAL

[6] = DRUGMATRIX: beta-Lactamase enzyme inhibition (substrate: Nitrocefin); set-up: species or system Bacillus cereus; settings: Not Active = under 50% inhibition at 10 µM
Cannabinoid receptor 1 = Cannabinoid receptor 1 (Homo sapiens, UniProt P21554); format: cell membranes, Membrane; settings: chem-1; also: in other assays of this panel Not Active means under 50% inhibition at 10 µM
Chain of Cannabinoid receptor 1 (P21554 whole entry): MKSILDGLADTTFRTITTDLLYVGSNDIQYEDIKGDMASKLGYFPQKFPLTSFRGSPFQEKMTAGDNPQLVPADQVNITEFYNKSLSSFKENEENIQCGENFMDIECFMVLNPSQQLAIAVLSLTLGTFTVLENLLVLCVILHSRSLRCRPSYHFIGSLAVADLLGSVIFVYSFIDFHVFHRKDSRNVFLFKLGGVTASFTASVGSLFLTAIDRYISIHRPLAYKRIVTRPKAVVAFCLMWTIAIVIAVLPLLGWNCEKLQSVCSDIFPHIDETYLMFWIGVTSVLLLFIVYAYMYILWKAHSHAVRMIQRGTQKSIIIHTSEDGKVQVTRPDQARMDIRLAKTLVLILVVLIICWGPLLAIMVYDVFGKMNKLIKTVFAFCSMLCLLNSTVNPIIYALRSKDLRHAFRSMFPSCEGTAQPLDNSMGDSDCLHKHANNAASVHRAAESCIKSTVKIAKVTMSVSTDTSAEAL

[7] = molecular target: T5, Type-2 angiotensin II receptor (Homo sapiens, UniProt P50052); format: cell-based; settings: cho-k1; also: in other assays of this panel Not Active means under 50% inhibition at 10 µM
T5 sequence (P50052 whole entry): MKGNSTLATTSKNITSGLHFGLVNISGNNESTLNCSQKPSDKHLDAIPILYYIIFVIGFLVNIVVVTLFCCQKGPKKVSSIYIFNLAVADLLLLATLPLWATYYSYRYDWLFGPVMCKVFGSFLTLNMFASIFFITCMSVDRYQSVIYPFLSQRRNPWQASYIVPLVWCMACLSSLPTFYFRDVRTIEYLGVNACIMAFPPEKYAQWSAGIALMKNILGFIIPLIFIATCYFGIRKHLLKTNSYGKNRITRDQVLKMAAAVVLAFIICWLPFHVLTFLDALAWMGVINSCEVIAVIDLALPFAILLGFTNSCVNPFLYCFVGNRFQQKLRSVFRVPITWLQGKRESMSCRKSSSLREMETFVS

[8] = DRUGMATRIX: Platelet-Derived Growth Factor (PDGF) radioligand binding (ligand: [125I] PDGF); format: cell-based; settings: nih3t3; Not Active = under 50% inhibition at 10 µM
[9] = DRUGMATRIX: Sodium/nucleoside co-transporter radioligand binding (ligand: nitrobenzylthioinosine); format: cell membranes, Cavia porcellus, Dunkin-Hartley, Cerebral cortex, Membrane; settings: Not Active = under 50% inhibition at 10 µM

Row | Structure (SMILES) | IC50 [1] | IC50 [2] | IC50 [3] | IC50 [4] | IC50 (Cytochrome P450 2A6) | Ki (Cytochrome P450 2A6) | IC50 (Cytochrome P450 2E1) | Ki (Cytochrome P450 2E1) | IC50 [5] | IC50 [6] | Ki [6] | IC50 (Cannabinoid receptor 1) | IC50 [7] | IC50 [8] | Ki [8] | IC50 [9] | Ki [9] | IC50 ([3]; read-out: IC50) | Ki ([3]; read-out: Ki)
1 | Nc1ccc(S(N)(=O)=O)cc1 [SULFANILAMIDE] | Not Active | Not Active | Not Active | Not Active | Not Active | Not Active | Not Active | Not Active | Not Active | Not Active | Not Active | Not Active | Not Active | Not Active | Not Active | Not Active | Not Active | – | –
2 | c1ccc2[nH]c(-c3cscn3)nc2c1 [THIABENDAZOLE] | Not Active | Not Active | Not Active | Not Active | Not Active | Not Active | Not Active | Not Active | Not Active | Not Active | Not Active | Not Active | Not Active | Not Active | Not Active | Not Active | Not Active | – | –
3 | CC[C@H]1OC(=O)[C@H](C)[C@@H](O[C@H]2C[C@@](C)(OC)[C@@H](O)[C@H](C)O2)[C@H](C)[C@@H](O[C@@H]2O[C@H](C)C[C@H](N(C)C)[C@H]2O)[C@](C)(O)C[C@@H](C)/C(=N\OCOCCOC)[C@H](C)[C@@H](O)[C@]1(C)O [ROXITHROMYCIN] | Not Active | Not Active | – | Not Active | Not Active | Not Active | Not Active | Not Active | Not Active | Not Active | Not Active | Not Active | Not Active | Not Active | Not Active | Not Active | Not Active | 0.989 µM | 0.548 µM
4 | CCOC(=O)[C@H](CCc1ccccc1)N[C@@H](C)C(=O)N1[C@H](C(=O)O)C[C@@H]2CCC[C@@H]21 | Not Active | Not Active | Not Active | Not Active | Not Active | Not Active | Not Active | Not Active | Not Active | Not Active | Not Active | Not Active | Not Active | Not Active | Not Active | Not Active | Not Active | – | –
5 | NNC(=O)c1ccncc1 [ISONIAZID] | Not Active | Not Active | Not Active | Not Active | Not Active | Not Active | Not Active | Not Active | Not Active | Not Active | Not Active | Not Active | Not Active | Not Active | Not Active | Not Active | Not Active | – | –
6 | Nc1nnc(-c2cccc(Cl)c2Cl)c(N)n1 [LAMOTRIGINE] | Not Active | Not Active | Not Active | Not Active | Not Active | Not Active | Not Active | Not Active | Not Active | Not Active | Not Active | Not Active | Not Active | Not Active | Not Active | Not Active | Not Active | – | –
7 | C[C@]12Cc3c[nH]nc3C[C@@H]1CC[C@@H]1[C@@H]2CC[C@@]2(C)[C@H]1CC[C@]2(C)O [STANOZOLOL] | Not Active | Not Active | Not Active | Not Active | Not Active | Not Active | Not Active | Not Active | Not Active | Not Active | Not Active | Not Active | Not Active | Not Active | Not Active | Not Active | Not Active | – | –
8 | CC1=C(/C=C/C(C)=C/C=C/C(C)=C\C(=O)O)C(C)(C)CCC1 [ISOTRETINOIN] | Not Active | Not Active | Not Active | Not Active | Not Active | Not Active | Not Active | Not Active | Not Active | Not Active | Not Active | Not Active | Not Active | Not Active | Not Active | Not Active | Not Active | – | –
